Laboratory results as given in patent US20100203110A1, “Therapeutics for Cancer Using 3-Bromopyruvate and Other Selective Inhibitors of ATP Production” (The Johns Hopkins University, priority 2006, published 2010).

Columns and labels:
[1] = system: "metastatic" lung tumors; assay: Systemic delivery via marginal ear vein, metastatic lung nodules; assay type: in vivo, rabbit
Description: FIG. 4 depicts the effect of systemic delivery of 3-BrPA on animals harboring the liver implanted VX2 tumor. FIG. 4A depicts histological sections of 9 different tissues isolated 4 days after injecting 3-BrPA (25 ml 0.5 mM) into a marginal ear vein. No damage to these tissues is evident. (Magnification=120×). FIG. 4B depicts a section from a liver implanted VX2 tumor isolated from a control animal not receiving 3-BrPA. […] Cells in both appear completely viable. (Magnification 120×) FIG. 4D depicts a section of lung tissue isolated from an animal in which the liver harbored a VX2 tumor after 14 days of growth. […] (Animals evaluated=4).
Finally, it was important to examine the effect of 3-BrPA when delivered systemically (i.e., via the general circulation) on both animal toxicity and its capacity to damage liver implanted tumors.

[2] = system: THLE-2; assay: Cell viability, THLE-2; assay type: cell-based; conditions: 1 mM for 3 hour
Description: Caspase-3 activity and reduced cell viability was also measured in cell lines (HepG2, THLE-2, and VX2 cell lines) following 3-bromopyruvate treatment (1 mM for 3 hour) (FIG. 6A). Caspase-3 activity increased in each cell line following treatment and cell viability decreased following treatment. An increase in caspase-3 activity indicated the mechanism of cell death is apoptotic. FIGS. 6 B and C show cell viability is reduced in each cell line with increasing 3-bromopyruvate concentration after 1 and 3 hours of treatment.

[3] = Biodistribution of 14C radiolabeled 3-bromopyruvate in rabbit Vx-2 model; assay type: in vivo
Description: In order to properly design a treatment protocol that would ensure survival of the animal with the least amount of toxicity, the biodistribution of 3-bromopyruvate given either IV or intraarterially over a period of 24 hours was investigated. For this series of experiments, radioactive 3-bromopyruvate using ^14C was synthesized. The use of ^14C labeled 3-bromopyruvate would allow monitoring in each tissue.
36 rabbits were divided into two groups of 18 animals each. Group 1 was treated intraarterially and group 2 received intravenous injection of 3-bromopyruvate. Each group was further subdivided into six groups of three rabbits each, corresponding to various time points of sacrifice (0, 30, 60, 120 and 240 minutes and 24 hours). All rabbits were fasted for 24 hours prior to treatment. The rabbits treated intraarterially received a one-hour infusion of 25 cc of 1.75 mM 3-bromopyruvate in PBS and those treated intravenously received a one-hour infusion of 25 cc of 20 mM 3-bromopyruvate in PBS. The difference in doses of 3-bromopyruvate between intraarterial and intravenous administration is based on the optimal dose for each method of administration. Radiolabeled 3-bromopyruvate (200 μCi, 100 μL) was added to each 25 ml treatment solution. One hour before sacrifice, 1 ml of 18FDG (1 mCi) was injected via an ear vein to monitor glucose uptake.
The purpose of the injection of FDG was to correlate the effects of 3-bromopyruvate with glucose uptake. […] This finding, also present when the drug was given intraarterially, was more pronounced and the accumulation of 3-bromopyruvate is prolonged compared to IV administration.

[4] = system: VX2 rabbit liver tumors; assay: Intraarterial dose and infusion modality optimisation in VX2 liver cancer; assay type: in vivo
Description: In a therapeutic dose study, 25 ml of 2.5 and 5 mM 3-BrPA were injected as a single intraarterial bolus over two minutes. Although these doses (2.5 and 5 mM) were 0.5 and 1 log higher than the 0.5 mM dose previously investigated, these doses were well within the IV therapeutic dose established in rats and rabbits.
Since patients with HCC also suffer from underlying liver disease such as cirrhosis and hepatitis, an important translational consideration for therapy is the absolute necessity to protect and preserve healthy liver parenchyma. To lessen the degree of liver toxicity, different temporal modalities of intraarterial injection were tested. One possibility was that such a large volume, delivered within the short time of 2 minutes may have added physical and chemical toxic effects on the liver. Thus, a 1-hour continuous infusion and a serial infusion of 2 boluses administered an hour apart were compared against the original single bolus dose. The volume of 25 mL and the concentration of 2.5 mM 3-bromopyruvate were kept constant. […] In each of these experiments, rabbits were sacrificed 48 hours after treatment and representative sections obtained of tumor and normal tissues (7 slides/sample). The samples were subjected to histopathological analysis to determine percentage tumor cell death and damage to the surrounding normal liver tissue. This was then confirmed with the TUNEL assay (FIG. 7) and Ki-67 immunohistochemistry. […] The prolonged slow infusion eliminated most, if not all, of the unwanted damage to the normal liver enabling the use of a much higher dose of 3-bromopyruvate to ensure complete destruction of the tumor.
Having determined that prolonged intraarterial infusion of 3-bromopyruvate was the optimal method of administration, a dose-response analysis was conducted. In part, this dose-response analysis was prompted by the persistent toxicity to healthy liver encountered at 2.5 mM. The objective was to optimize the 1-hour infusion in order to achieve complete tumor eradication without any toxicity to the normal liver parenchyma. Rabbits were intraarterially infused over 1-hour with doses ranging between 0.5 and 2.5 mM in 0.25 mM increments. The rabbits were fasted 24 hours prior to treatment and euthanized 48 hours after treatment. […] This total destruction was identified by histopathology (H&E) and confirmed by the TUNEL assay (FIG. 7). […] One possible explanation for this finding may be that 3-bromopyruvate at higher doses may have other cellular and chemical functions that are much more toxic to the normal liver parenchyma therein impeding the delivery of 3-bromopyruvate exclusively to the tumor. Thus, the healthy liver's ability to metabolize 3-bromopyruvate was optimal at the concentration of 1.75 mM.
To further explore use of the continuous infusion method of delivery, the effect of a 2-hour continuous infusion of 50 mL 1.75 mM 3-BrPA was tested.

[5] = IA one-hour infusion 25 cc 1.75 mM
[6] = 25 ml 5 mM, single IA bolus over two minutes

## O=C(O)C(=O)CBr [3-bromopyruvate]
[1]; 25 ml 0.5 mM, 4 days
  metastatic lung tumors with a diameter greater than 1 mm: almost complete disappearance
[1]; of >27 tumors counted, untreated 5
  number of metastatic lung tumors greater than 1 mm in diameter: none
[2]
  cell viability: decreased
[3]; 14C label
  levels in the brain: virtually undetectable
[3]; [5]
  accumulation in other organs including brain, lungs and heart: no accumulation
  retention in the tumor: stayed within the tumor up to 24 hours
[3]; IA, lesser extent through the kidneys
  clearance route: mostly through the liver
[3]; IV one-hour infusion 25 cc 20 mM
  uptake by organs (heart, lung and brain): no significant uptake
[3]; after IV injection
  time of maximal tumor uptake: 4 h
[3]; rabbit, in vivo
  blood brain barrier penetration: does not cross the blood brain barrier
  inhibition of FDG (glucose) uptake in organs: no inhibition
  tissue damage at histopathologic analysis: none of the organs showed any associated tissue damage
[4]; 1-hour intraarterial infusion of 25 mL of 1.75 mM
  major organ toxicity: without any evidence of major organ toxicity
[4]; 2-hour continuous infusion of 50 mL 1.75 mM
  tumor kill and liver toxicity versus 1-hour infusion: no significant difference
[4]; 25 mL 1.75 mM, 1-hour IA infusion
  damage to the normal liver: without any damage
[4]; 25 mL 1.75 mM, 1-hour IA infusion, 48 hours, H&E and TUNEL
  tumor cell destruction: 100%
[4]; 25 mL 2.5 mM, 1-hour continuous IA infusion, 48 hours
  liver toxicity versus single bolus and 2 serial boluses: considerably less
[4]; 25 ml 2.5 mM, single IA bolus
  surrounding healthy liver: large areas of necrosis and fatty changes
  survival after treatment: barely able to survive for more than 48 hours
[4]; 25 ml 2.5 mM, single IA bolus over two minutes
  tumor destruction: complete tumor destruction
[4]; 25 ml 5 mM, single IA bolus
  mortality: death of all the rabbits
  other major organs, histopathology at necropsy: completely uneffected
[4]; [6]
  surrounding healthy liver: widespread necrosis
  tumor destruction: completely destroyed the tumor
[4]; doses higher than 1.75 mM, 1-hour IA infusion
  toxicity to the healthy liver tissue: increased toxicity
